Assay results published in PubChem BioAssay (NCI).
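Interpolation was linear, between the two tested concentrations surrounding the appropriate level; five concentrations were tested over 48 hours in 96-well plates. TGI denotes the concentration required for complete inhibition of growth.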

Columns and labels:
Assay in all cases: NCI tumour cell line growth inhibition, 48 h
786-0 renal = system: 786-0 renal
A498 renal = system: A498 renal
A549 NSCLC = system: A549 NSCLC
ACHN renal = system: ACHN renal
CAKI-1 renal = system: CAKI-1 renal
CCRF-CEM leukemia = system: CCRF-CEM leukemia
COLO 205 colon = system: COLO 205 colon
DLD-1 colon = system: DLD-1 colon
DMS 114 small cell lung = system: DMS 114 small cell lung
DMS 273 small cell lung = system: DMS 273 small cell lung
EKVX NSCLC = system: EKVX NSCLC
HCC-2998 colon = system: HCC-2998 colon
HCT-116 colon = system: HCT-116 colon
HCT-15 colon = system: HCT-15 colon
HL-60(TB) leukemia = system: HL-60(TB) leukemia
HOP-18 NSCLC = system: HOP-18 NSCLC
HOP-62 NSCLC = system: HOP-62 NSCLC
HT29 colon = system: HT29 colon
IGROV1 ovarian = system: IGROV1 ovarian
K-562 leukemia = system: K-562 leukemia
KM12 colon = system: KM12 colon
KM20L2 colon = system: KM20L2 colon
LOX IMVI melanoma = system: LOX IMVI melanoma
LXFL 529 NSCLC = system: LXFL 529 NSCLC
M14 melanoma = system: M14 melanoma
M19-MEL melanoma = system: M19-MEL melanoma
MALME-3M melanoma = system: MALME-3M melanoma
MOLT-4 leukemia = system: MOLT-4 leukemia
NCI-H23 lung = system: NCI-H23 lung
NCI-H460 lung = system: NCI-H460 lung
NCI-H522 lung = system: NCI-H522 lung
OVCAR-3 ovarian = system: OVCAR-3 ovarian
OVCAR-4 ovarian = system: OVCAR-4 ovarian
OVCAR-5 ovarian = system: OVCAR-5 ovarian
RXF 393 renal = system: RXF 393 renal
RXF-631 renal = system: RXF-631 renal
SF-268 CNS = system: SF-268 CNS
SF-295 CNS = system: SF-295 CNS
SF-539 CNS = system: SF-539 CNS
SK-MEL-2 melanoma = system: SK-MEL-2 melanoma
SK-MEL-28 melanoma = system: SK-MEL-28 melanoma
SK-MEL-5 melanoma = system: SK-MEL-5 melanoma
SK-OV-3 ovarian = system: SK-OV-3 ovarian
SN12C renal = system: SN12C renal
SNB-19 CNS = system: SNB-19 CNS
SNB-75 CNS = system: SNB-75 CNS
SNB-78 CNS = system: SNB-78 CNS
SW-620 colon = system: SW-620 colon
TK-10 renal = system: TK-10 renal
U251 CNS = system: U251 CNS
UACC-257 melanoma = system: UACC-257 melanoma
UACC-62 melanoma = system: UACC-62 melanoma
UO-31 renal = system: UO-31 renal
XF 498 CNS = system: XF 498 CNS
BT-549 breast = system: BT-549 breast
DU-145 prostate = system: DU-145 prostate
HOP-92 NSCLC = system: HOP-92 NSCLC
HS 578T breast = system: HS 578T breast
MCF7 breast = system: MCF7 breast
MDA-MB-231 breast = system: MDA-MB-231 breast
MDA-MB-435 = system: MDA-MB-435
MDA-N = system: MDA-N
NCI-H226 lung = system: NCI-H226 lung
NCI/ADR-RES ovarian = system: NCI/ADR-RES ovarian
OVCAR-8 ovarian = system: OVCAR-8 ovarian
PC-3 prostate = system: PC-3 prostate
RPMI-8226 leukemia = system: RPMI-8226 leukemia
SR leukemia = system: SR leukemia
T-47D breast = system: T-47D breast

Cc1ccc(SSCCCCS(=O)O)cc1
TGI (786-0 renal): > 100 µM | TGI (A498 renal): 54.6 µM | TGI (A549 NSCLC): 70.6 µM | TGI (ACHN renal): 62.7 µM | TGI (CAKI-1 renal): 40.9 µM | TGI (CCRF-CEM leukemia): 62.5 µM | TGI (COLO 205 colon): 39.7 µM | TGI (DLD-1 colon): > 100 µM | TGI (DMS 114 small cell lung): 41.9 µM | TGI (DMS 273 small cell lung): 65.7 µM | TGI (EKVX NSCLC): 55.6 µM | TGI (HCC-2998 colon): 66.3 µM | TGI (HCT-116 colon): > 100 µM | TGI (HCT-15 colon): 89.2 µM | TGI (HL-60(TB) leukemia): 20.4 µM | TGI (HOP-18 NSCLC): > 100 µM | TGI (HOP-62 NSCLC): 81.1 µM | TGI (HT29 colon): 53.7 µM | TGI (IGROV1 ovarian): 18.8 µM | TGI (K-562 leukemia): > 100 µM | TGI (KM12 colon): 52.3 µM | TGI (KM20L2 colon): 46.9 µM | TGI (LOX IMVI melanoma): 76.1 µM | TGI (LXFL 529 NSCLC): 25.5 µM | TGI (M14 melanoma): 32.6 µM | TGI (M19-MEL melanoma): 64.5 µM | TGI (MALME-3M melanoma): 69.7 µM | TGI (MOLT-4 leukemia): > 100 µM | TGI (NCI-H23 lung): 55.4 µM | TGI (NCI-H460 lung): > 100 µM | TGI (NCI-H522 lung): 27.6 µM | TGI (OVCAR-3 ovarian): 67.7 µM | TGI (OVCAR-4 ovarian): 32 µM | TGI (OVCAR-5 ovarian): 96.3 µM | TGI (RXF 393 renal): 29.1 µM | TGI (RXF-631 renal): 77.6 µM | TGI (SF-268 CNS): 46.9 µM | TGI (SF-295 CNS): 96.4 µM | TGI (SF-539 CNS): 38.1 µM | TGI (SK-MEL-2 melanoma): 68.5 µM | TGI (SK-MEL-28 melanoma): 44.1 µM | TGI (SK-MEL-5 melanoma): 25.6 µM | TGI (SK-OV-3 ovarian): 71 µM | TGI (SN12C renal): 40.4 µM | TGI (SNB-19 CNS): > 100 µM | TGI (SNB-75 CNS): > 100 µM | TGI (SNB-78 CNS): > 100 µM | TGI (SW-620 colon): 38.5 µM | TGI (TK-10 renal): 46.8 µM | TGI (U251 CNS): 39.2 µM | TGI (UACC-257 melanoma): 53.3 µM | TGI (UACC-62 melanoma): 42.6 µM | TGI (UO-31 renal): 39.8 µM | TGI (XF 498 CNS): 32 µM

CCCCCCCCC(=O)NCCN(CCN)C(=O)CCCCCCCC
TGI (786-0 renal): 12.4 µM | TGI (A498 renal): 43.8 µM | TGI (A549 NSCLC): 29.9 µM | TGI (ACHN renal): 19.2 µM | TGI (BT-549 breast): 22.8 µM | TGI (CAKI-1 renal): 32.9 µM | TGI (CCRF-CEM leukemia): 8.19 µM | TGI (COLO 205 colon): 6.72 µM | TGI (DLD-1 colon): 10.4 µM | TGI (DMS 114 small cell lung): 10.1 µM | TGI (DMS 273 small cell lung): 6.65 µM | TGI (DU-145 prostate): 27.9 µM | TGI (EKVX NSCLC): 36.2 µM | TGI (HCC-2998 colon): 24.3 µM | TGI (HCT-116 colon): 8.02 µM | TGI (HCT-15 colon): 10.3 µM | TGI (HL-60(TB) leukemia): 5.32 µM | TGI (HOP-18 NSCLC): 31 µM | TGI (HOP-62 NSCLC): 30.6 µM | TGI (HOP-92 NSCLC): 37.1 µM | TGI (HS 578T breast): 24 µM | TGI (HT29 colon): 7.15 µM | TGI (IGROV1 ovarian): 19.5 µM | TGI (K-562 leukemia): 8.27 µM | TGI (KM12 colon): 6.01 µM | TGI (KM20L2 colon): 9.55 µM | TGI (LOX IMVI melanoma): 9.06 µM | TGI (LXFL 529 NSCLC): 7.89 µM | TGI (M14 melanoma): 22 µM | TGI (M19-MEL melanoma): 10.6 µM | TGI (MALME-3M melanoma): 33.6 µM | TGI (MCF7 breast): 17.5 µM | TGI (MDA-MB-231 breast): 10.3 µM | TGI (MDA-MB-435): 29.7 µM | TGI (MDA-N): 11.6 µM | TGI (MOLT-4 leukemia): 8.57 µM | TGI (NCI-H226 lung): 37.1 µM | TGI (NCI-H23 lung): 32.2 µM | TGI (NCI-H460 lung): 19.7 µM | TGI (NCI-H522 lung): 7.21 µM | TGI (NCI/ADR-RES ovarian): 31.1 µM | TGI (OVCAR-3 ovarian): 30.9 µM | TGI (OVCAR-4 ovarian): 16.2 µM | TGI (OVCAR-5 ovarian): 30.5 µM | TGI (OVCAR-8 ovarian): 26.8 µM | TGI (PC-3 prostate): 25 µM | TGI (RPMI-8226 leukemia): 6.25 µM | TGI (RXF 393 renal): 34.1 µM | TGI (RXF-631 renal): 13 µM | TGI (SF-268 CNS): 17.5 µM | TGI (SF-295 CNS): 10.5 µM | TGI (SF-539 CNS): 15.3 µM | TGI (SK-MEL-2 melanoma): 30.1 µM | TGI (SK-MEL-28 melanoma): 30.5 µM | TGI (SK-MEL-5 melanoma): 26.4 µM | TGI (SK-OV-3 ovarian): 29.9 µM | TGI (SN12C renal): 24.7 µM | TGI (SNB-19 CNS): 17.7 µM | TGI (SNB-75 CNS): 15.2 µM | TGI (SNB-78 CNS): 23.4 µM | TGI (SR leukemia): 13.8 µM | TGI (SW-620 colon): 6.31 µM | TGI (T-47D breast): 32.9 µM | TGI (TK-10 renal): 30 µM | TGI (U251 CNS): 9.26 µM | TGI (UACC-257 melanoma): 33.7 µM | TGI (UACC-62 melanoma): 21.9 µM | TGI (UO-31 renal): 26.6 µM | TGI (XF 498 CNS): 5.43 µM

OCC(O)C(OC1OC(CO)C(O)C(O)C1O)c1nn(-c2ccc(Cl)cc2)c2nc3cc(Cl)ccc3nc12 (stereo not given)
TGI (786-0 renal): > 100 µM | TGI (A498 renal): > 100 µM | TGI (ACHN renal): > 100 µM | TGI (CCRF-CEM leukemia): > 100 µM | TGI (DLD-1 colon): > 100 µM | TGI (DMS 114 small cell lung): > 100 µM | TGI (EKVX NSCLC): > 100 µM | TGI (HCC-2998 colon): > 100 µM | TGI (HCT-116 colon): > 100 µM | TGI (HCT-15 colon): > 100 µM | TGI (HOP-62 NSCLC): > 100 µM | TGI (HT29 colon): > 100 µM | TGI (K-562 leukemia): > 100 µM | TGI (KM12 colon): > 100 µM | TGI (KM20L2 colon): > 100 µM | TGI (LOX IMVI melanoma): > 100 µM | TGI (LXFL 529 NSCLC): > 100 µM | TGI (M14 melanoma): > 100 µM | TGI (M19-MEL melanoma): > 100 µM | TGI (MALME-3M melanoma): > 100 µM | TGI (MOLT-4 leukemia): > 100 µM | TGI (NCI-H23 lung): > 100 µM | TGI (NCI-H460 lung): > 100 µM | TGI (NCI-H522 lung): > 100 µM | TGI (OVCAR-3 ovarian): > 100 µM | TGI (OVCAR-4 ovarian): > 100 µM | TGI (OVCAR-5 ovarian): > 100 µM | TGI (OVCAR-8 ovarian): > 100 µM | TGI (RPMI-8226 leukemia): > 100 µM | TGI (RXF 393 renal): > 100 µM | TGI (RXF-631 renal): > 100 µM | TGI (SF-268 CNS): > 100 µM | TGI (SF-295 CNS): > 100 µM | TGI (SF-539 CNS): > 100 µM | TGI (SK-MEL-28 melanoma): > 100 µM | TGI (SK-OV-3 ovarian): > 100 µM | TGI (SN12C renal): > 100 µM | TGI (SNB-19 CNS): > 100 µM | TGI (SNB-75 CNS): > 100 µM | TGI (SNB-78 CNS): > 100 µM | TGI (SR leukemia): > 100 µM | TGI (TK-10 renal): > 100 µM | TGI (U251 CNS): > 100 µM | TGI (UACC-257 melanoma): > 100 µM | TGI (UACC-62 melanoma): > 100 µM | TGI (UO-31 renal): > 100 µM | TGI (XF 498 CNS): > 100 µM
